Laboratory results reported in article PMC6138628, “Enhanced uptake of gH625 by blood brain barrier compared to liver in vivo: characterization of the mechanism by an in vitro model and implications for delivery” (Scientific Reports, 2018).
Starred links: 1 amine or outer side, 2 acyl side, 3 side chain; linkers in the order of their positions; H or OH if unused. Non-standard residues stand in square brackets, D forms with d. Residues, ends and D or L forms follow the SMILES beside them. X1 = O=C([C@H](Cc1c[nH]cn1)N(c1ccc([N+](=O)[O-])c2nonc12)[*:1])[*:2]

Legend:
[1] = tested on: liver; experiment: In vivo liver uptake, fluorescence microscopy of rat liver slices; parameters: species or system male Wistar rats; settings: single i.v. 10, 20, 40 µg/100 g bw, 3.5 hours
Experimental: In vivo studies were performed in male Wistar rats housed under a 12 hours light-dark cycle with free access to food and water. The animals were allocated in five groups, each consisting of three rats. Three animal groups received a single i.v. administration of NBD-gH625 at a concentration of 10 µg, 20 µg, and 40 µg/100 g bw, respectively. Control group received vehicle while another group received gH-625 (40 µg/100 g bw). Both NBD-gH625 and gH625 were dissolved in phosphate-buffered saline. After 3.5 hours from the i.v. administration, the animals were anesthetized with Zoletil® (40 mg/100 g) and euthanized by decapitation. This study was carried out in strict accordance with recommendations in the European Guide for the Care and Use of Laboratory Animals. […]
(§1) To evaluate the effect of concentration on the systemic delivery of NBD-gH625, a fluorescence microscopy analysis was performed as previously reported.
Briefly, livers and brains were isolated and fixed for 24 hours in Bouin’s fixative (71% picric acid, 5% acetic acid, 24% formaldehyde) and embedded in paraffin wax (Carlo Erba, Milan, Italy). […] All images were then analysed using Fiji 1.50 software to determine the mean fluorescence and the integrated density, defined as the product of the mean fluorescence per the region of interest (μm^2)[32]. The percentage of delivered vs administered NBD-gH625 was calculated.

[2] = tested on: brain / BBB; experiment: In vivo brain uptake, fluorescence microscopy of rat brain; parameters: species or system male Wistar rats
Experimental: In vivo studies were performed in male Wistar rats housed under a 12 hours light-dark cycle with free access to food and water. The animals were allocated in five groups, each consisting of three rats. Three animal groups received a single i.v. administration of NBD-gH625 at a concentration of 10 µg, 20 µg, and 40 µg/100 g bw, respectively. Control group received vehicle while another group received gH-625 (40 µg/100 g bw). Both NBD-gH625 and gH625 were dissolved in phosphate-buffered saline. After 3.5 hours from the i.v. administration, the animals were anesthetized with Zoletil® (40 mg/100 g) and euthanized by decapitation. This study was carried out in strict accordance with recommendations in the European Guide for the Care and Use of Laboratory Animals. Every effort was made to minimize animal pain and suffering. All animal protocols were approved by the Committee on the Ethics of Animal Experiments of the University of Napoli Federico II (Italy) and the Italian Minister of Health. (Protocol number 2012/000180).
The ex-vivo fluorescence microscopy analysis was performed to evaluate the distribution of NBD-gH625 on both sides of the BBB. In order to evaluate if there is a linear relationship between slides fluorescence integrated density and the amount of the peptide, a calibration curve was obtained. In particular, increasing amounts of NBD-gH625 (0–30 µM) were spotted on microscope slides and images at 515 nm were acquired (See the Results section) and analysed as described below. Brains were removed from animals, sectioned sagittally in thick slices, washed in PBS, mounted on coverslips, stained with DAPI (4′–6 Diamidino-2-Phenylindole, Dilactate) (Invitrogen, Carlsbad, CA, USA) and analysed under Axioskop fluorescence microscope (Zeiss). Images, at least 10 field of view (800 × 700 μm each) for each experimental class, were acquired using an AxioCam MRc5 (Zeiss) with DAPI filter (λex 350 nm; λem 461 nm) and a fluorescein isothiocyanate filter (λex 488 nm; λem 515 nm).
To evaluate the distribution of NBD-gH625 on both sides of the BBB, we estimated the fluorescence inside the blood vessels (without discriminating between the amount present in the blood and that present in the endothelial cells) and outside the blood vessels in 10 images for each experimental class. In detail, to assess the NBD-gH625 that reached without crossing the BBB, we selected blood vessels as the region of interest (ROI) (inbound) and evaluated the fluorescence intensity; then, on the non-zero thresholded images, an inversion of selected ROI was carried out to obtain the complementary ROI to calculate the amounts of NBD-gH625 which crossed the BBB (outbound).
The morphology of blood vessels was easily identified and outlined; the images were calibrated by ImageJ Rodbard function; integrated density values were calculated within the outlines exclusively, to be considered as inside fluorescence. Then, the thresholded and outlined images, to exclude both blood vessels and background values, were used to calculate the integrated density as outside fluorescence.
as §1
Briefly, livers and brains were isolated and fixed for 24 hours in Bouin’s fixative (71% picric acid, 5% acetic acid, 24% formaldehyde) and embedded in paraffin wax (Carlo Erba, Milan, Italy). Tissue sections (10 μm of thickness) were incubated in 0.1% Sudan Black B dissolved in 70% ethanol for 20 minutes to reduce the tissues autofluorescence. The excess of Sudan Black B was removed by washing with Tris-buffered saline containing 0.02% Tween 20[30],[31]. Sections were stained with DAPI to counterstain nuclei, then mounted with a coverslip in glycerol/phosphate-buffered saline (1:1) and acquired using an AxioCam MRc5 with DAPI filter (λex 350 nm; λem 461 nm) and a fluorescein isothiocyanate filter (λex 488 nm; λem 515 nm). […]

[3] = single i.v., 3.5 hours after administration, ex vivo brain slices, 515 nm

CC[C@H](C)[C@H](NC(=O)[C@H](CC(C)C)NC(=O)[C@H](C)NC(=O)[C@H](CC(N)=O)NC(=O)[C@H](Cc1ccc(O)cc1)NC(=O)[C@H](Cc1c[nH]cn1)NC(=O)[C@H](C)NC(=O)[C@H](Cc1c[nH]c2ccccc12)NC(=O)[C@H](CCCNC(=N)N)NC(=O)[C@@H](NC(=O)[C@H](CC(C)C)NC(=O)[C@@H](NC(=O)[C@H](CO)NC(=O)[C@H](C)NC(=O)[C@H](CC(C)C)NC(=O)CNC(=O)[C@H](Cc1c[nH]cn1)Nc1ccc([N+](=O)[O-])c2nonc12)[C@@H](C)O)[C@@H](C)O)C(=O)N[C@@H](CCCNC(=N)N)C(=O)N[C@@H](C)C(=O)N[C@@H](Cc1ccccc1)C(N)=O [NBD-gH625] (H-[X1]GLASTLTRWAHYNALIRAF-NH2)
Integrated density of fluorescence on liver slices, dependence on dose [1]: lowest dose of NBD-gH625 has higher effect
Percentage of peptide delivered in liver vs administered, dependence on dose ([1]; integrated density calibrated with known amounts): lower doses produced higher percentages of delivered peptide
Integrated density of fluorescence on brain slices ([2]; single i.v. 40 µg/100 g bw, 3.5 hours): comparable to the control
Integrated density of fluorescence on brain slices, dependence on dose ([2]; single i.v. 10, 20, 40 µg/100 g bw, 3.5 hours): lower peptide concentrations are able to improve the reaching of the brain more compared to higher concentrations
Percentage of peptide delivered in brain vs administered, dependence on dose ([2]; single i.v. 10, 20, 40 µg/100 g bw, 3.5 hours, integrated density calibrated with known amounts): lower doses produced higher percentages of delivered peptide
Peptide crossing the BBB (fluorescence outside blood vessels, brain parenchyma) [2, 3]: crosses the BBB
Peptide delivered to the BBB (fluorescence inside blood brain vessels, integrated density) [2, 3]: reaches the BBB of treated animals
